Reference: US20240327425A1, “KRAS G12D INHIBITOR AND USE THEREOF” (SHANGHAI DE NOVO PHARMATECH CO., LTD., priority 2021, published 2024)
Where a name gives a salt, the structure may show the parent alone.

Biological target: Human KRAS G12D His-tagged protein (Homo sapiens (Human), UniProt P01116, G12D)
Test: KRAS G12D binding assay (TR-FRET)
Conditions: GDP 20 nM, GTP-Red
Protocol: The binding ability of the compound to KRAS G12D protein was detected by TR-FRET method, and the inhibitory activity of the compound on KRAS G12D protein was evaluated. Human KRAS G12D His-tagged (Cisbio, 63ADK000CB27PEG) protein was 100-fold diluted with PPI Eu detection buffer (Cisbio, 61DB9RBF), then 5 μL of which was added to a 384-well plate and centrifuged at 2000 rpm for 40 seconds. A 10 mM concentrated stock solution of the test compound was prepared with dimethyl sulfoxide, 3-fold serially diluted, then diluted to make a working solution (0.5% DMSO) with PPI Eu detection buffer, added to a 384-well plate at 5 μL/well, with the control group added with 0.5% dimethyl sulfoxide and the highest concentration of the test compound at 10 μM, and centrifuged at 2000 rpm for 40 seconds. An 80 nM GDP standard working solution (Cisbio, 63ADK000CB27PEG) was prepared with PPI Eu detection buffer and added to a 384-well plate at 5 μL/well, with the final concentration of GDP standard working solution at 20 nM. The plate was centrifuged at 2000 rpm for 40 seconds and reacted at room temperature for 30 minutes. 1×6His Eu cryptate antibody and GTP-Red reagent (Cisbio, 63ADK000CB27PEG) were prepared with PPI Eu detection buffer, mixed in a volume ratio of 1:1, 5 μL of which was then added to a 384-well plate, centrifuged at 2000 rpm for 40 seconds, and incubated at room temperature for 30 minutes. The fluorescence intensity at 620 nm and 665 nm was detected by a microplate reader, and the inhibitory activity of the compound on KRAS G12D protein was obtained by fitting a four-parameter equation.

`Nc1nc2c(-c3c(Cl)c4c5c(nc(OC[C@@]67CCCN6C[C@H](F)C7)nc5c3F)N3C[C@H]5CC[C@H](N5)[C@H]3CO4)cccc2s1` (single isomer, unassigned) [Compound I-12-1] showed an IC50 of 30.3 nM.
“4-((5aS,6S,9R)-3-chloro-1-fluoro-13-(((2R,7aS)-2-fluorohexahydro-1H-pyrrolizin-7a-yl)methoxy)-5a,6,7,8,9,10-hexahydro-5H-6,9-epiminoazepino[2′,1′:3,4][1,4]oxazepino[5,6,7-de]quinazolin-2-yl)-1-(difluoromethyl)-1H-benzo[d]imidazol-2-amine ditrifluoroacetate [Compound I-23]” showed an IC50 of 217 nM.
`Nc1n[nH]c2sc3cccc(-c4c(Cl)c5c6c(nc(OC[C@@]78CCCN7C[C@H](F)C8)nc6c4F)N4C[C@H]6CC[C@H](N6)[C@H]4CO5)c3c12` (single isomer, unassigned) [Compound I-26-2] was tested, and the IC50 was 11 nM.
With `N#Cc1c(N)sc2c(F)ccc(-c3c(Cl)c4c5c(ncnc5c3F)N3C[C@H]5CC[C@H](N5)[C@H]3CO4)c12` (single isomer, unassigned) [Compound I-8-2] the IC50 was 60.4 nM.
`[2H]C([2H])(Oc1nc2c3c(c(Cl)c(-c4cccc5sc(N)c(C#N)c45)c(F)c3n1)OC[C@@H]1[C@@H]3CC[C@H](CN21)N3)[C@@]12CCCN1C[C@H](F)C2` (single isomer, unassigned) [Compound I-24-1] showed an IC50 of 136 nM.
`C#Cc1cccc2cc(O)cc(-c3nc4c5c(nc(OC[C@@]67CCCN6C[C@H](F)C7)nc5c3F)N3C[C@H]5CC[C@H](N5)[C@H]3CO4)c12` [Compound I-4, 5-ethynyl-4-((5aS,6S,9R)-1-fluoro-12-(((2R,7aS)-2-fluorohexahydro-1H-pyrrolizin-7a(5H)-yl)methoxy)-5a,6,7,8,9,10-hexahydro-5H-4-oxa-3,10a,11,13,14-pentaaza-6,9-methanonaphtho[1,8-ab]heptan-2-yl)naphthalen-2-ol ditrifluoroacetate] showed an IC50 of 2.72 nM.
`N#Cc1c(N)sc2cccc(-c3c(Cl)c4c5c(ncnc5c3F)N3C[C@H]5CC[C@H](N5)[C@H]3CO4)c12` (single isomer, unassigned) [Compound I-10-2] was tested, and the IC50 was 75.8 nM.
For `N#Cc1c(N)sc2cccc(-c3c(Cl)c4c5c(nc(OC[C@@]67CCCN6C[C@H](F)C7)nc5c3F)N3C[C@H]5CC[C@H](N5)[C@H]3CO4)c12` (single isomer, unassigned) [Compound I-7-1], the IC50 was 186 nM.
Work on `Nc1cc2cc(-c3c(Cl)c4c5c(nc(OC[C@@]67CCCN6C[C@H](F)C7)nc5c3F)N3C[C@H]5CC[C@H](N5)[C@H]3CO4)ccc2s1` [Compound I-16, 5-((5aS,6S,9R)-3-chloro-1-fluoro-13-(((2R,7aS)-2-fluorohexahydro-1H-pyrrolizin-7a-yl)methoxy)-5a,6,7,8,9,10-hexahydro-5H-6,9-epiminoazepino[2′,1′:3,4][1,4]oxazepino[5,6,7-de]quinazolin-2-yl)benzo[b]thiophen-2-amine ditrifluoroacetate] yielded an IC50 of 24 nM.
Molecule `CN1CCC[C@@H]1COc1nc2c3c(c(Cl)c(-c4cccc5sc(N)c(C#N)c45)c(F)c3n1)OC[C@@H]1[C@@H]3CC[C@H](CN21)N3` [Compound I-29] has an IC50 of 10.8 nM.
`Nc1cc2c(-c3c(Cl)c4c5c(nc(OC[C@@]67CCCN6C[C@H](F)C7)nc5c3F)N3C[C@H]5CC[C@H](N5)[C@H]3CO4)c(Cl)ccc2s1` [Compound I-15, 5-chloro-4-((5aS,6S,9R)-3-chloro-1-fluoro-13-(((2R,7aS)-2-fluorohexahydro-1H-pyrrolizin-7a-yl)methoxy)-5a,6,7,8,9,10-hexahydro-5H-6,9-epiminoazepino[2′,1′:3,4][1,4]oxazepino[5,6,7-de]quinazolin-2-yl)benzo[b]thiophen-2-amine ditrifluoroacetate] gave an IC50 of 38.1 nM.
With `[2H]C1([2H])CC[C@@]2(C([2H])([2H])Oc3nc4c5c(c(Cl)c(-c6cccc7sc(N)c(C#N)c67)c(F)c5n3)OC[C@@H]3[C@@H]5CC[C@H](CN43)N5)C[C@@H](F)CN12` (single isomer, unassigned) [Compound I-27-1] the IC50 was 212 nM.
With `C#Cc1cccc2cc(O)cc(-c3nc4c5c(nc(OC[C@@]67CCCN6C[C@H](F)C7)nc5c3F)N3C[C@@H]5CC[C@@H](N5)[C@@H]3CO4)c12` [Compound I-5, 5-ethynyl-4-((5aR,6R,9S)-1-fluoro-12-(((2R,7aS)-2-fluorohexahydro-1H-pyrrolizin-7a(5H)-yl)methoxy)-5a,6,7,8,9,10-hexahydro-5H-4-oxa-3,10a,11,13,14-pentaaza-6,9-methanonaphtho[1,8-ab]heptan-2-yl)naphthalen-2-ol ditrifluoroacetate] the IC50 was 25.4 nM.
In the case of `N#Cc1c(N)nn2cccc(-c3c(Cl)c4c5c(nc(OC[C@@]67CCCN6C[C@H](F)C7)nc5c3F)N3C[C@H]5CC[C@H](N5)[C@H]3CO4)c12` [Compound I-13, 2-amino-4-((5aS,6S,9R)-3-chloro-1-fluoro-13-(((2R,7aS)-2-fluorohexahydro-1H-pyrrolizin-7a-yl)methoxy)-5a,6,7,8,9,10-hexahydro-5H-6,9-epiminoazepino[2′,1′:3,4][1,4]oxazepino[5,6,7-de]quinazolin-2-yl)pyrazolo[1,5-a]pyridine-3-carbonitrile], the IC50 is reported as 32.5 nM.
With `N#Cc1c(N)sc2cccc(-c3c(Cl)c4c5c(ncnc5c3F)N3CC5CCC(N5)C3CO4)c12` (stereo not drawn) [Compound I-6-2, 2-amino-4-(3-chloro-1-fluoro-5a,6,7,8,9,10-hexahydro-5H-6,9-epiminoazepino[2′,1′:3,4][1,4]oxazepino[5,6,7-de]quinazolin-2-yl)benzo[b]thiophene-3-carbonitrile (trans) trifluoroacetate] the IC50 was 53.5 nM.
Work on `CC(Oc1nc2c3c(c(Cl)c(-c4cccc5sc(N)c(C#N)c45)c(F)c3n1)OC[C@H]1[C@@H]3CC[C@H](CN21)N3)[C@@]12CCCN1C[C@@H](F)C2` (stereo partly drawn) [Compound I-17-2, 2-amino-4-((5aS,6S,9R)-3-chloro-1-fluoro-13-(1-((2R,7aS)-2-fluorohexahydro-1H-pyrrolizin-7a-yl)ethoxy)-5a,6,7,8,9,10-hexahydro-5H-6,9-epiminoazepino[2′,1′:3,4][1,4]oxazepino[5,6,7-de]quinazolin-2-yl)benzo[b]thiophene-3-carbonitrile] yielded an IC50 of 6.9 nM.
`CC(Oc1nc2c3c(c(Cl)c(-c4c(F)ccc5sc(N)c(C#N)c45)c(F)c3n1)OC[C@@H]1[C@@H]3CC[C@H](CN21)N3)[C@@]12CCCN1C[C@H](F)C2` (stereo partly drawn) [Compound I-18, 2-amino-4-((5aS,6S,9R)-3-chloro-1-fluoro-13-(1-((2R,7aS)-2-fluorohexahydro-1H-pyrrolizin-7a-yl)ethoxy)-5a,6,7,8,9,10-hexahydro-5H-6,9-epiminoazepino[2′,1′:3,4][1,4]oxazepino[5,6,7-de]quinazolin-2-yl)-5-fluorobenzo[b]thiophene-3-carbonitrile ditrifluoroacetate] was tested, and the IC50 was 22 nM.
`C#Cc1cccc2cc(O)cc(-c3nc4c5c(nc(OC[C@@]67CCCN6C[C@H](F)C7)nc5c3F)N3CC5CCC(N5)C3CO4)c12` (stereo partly drawn) [Compound I-1-1, 5-ethynyl-4-(1-fluoro-12-(((2R,7aS)-2-fluorohexahydro-1H-pyrrolizin-7a-yl)methoxy)-5a,6,7,8,9,10-hexahydro-5H-4-oxa-3,10a,11,13,14-pentaaza-6,9-methanonaphtho[1,8-ab]heptan-2-yl)naphthalen-2-ol] gave an IC50 of 11 nM.
Work on `N#Cc1c(N)sc2c(F)ccc(-c3c(Cl)c4c5c(nc(OC[C@@]67CCCN6C[C@H](F)C7)nc5c3F)N3C[C@H]5CC[C@H](N5)[C@H]3CO4)c12` (single isomer, unassigned) [Compound I-11-2] yielded an IC50 of 5.9 nM.
